From ChEMBL document CHEMBL3227995, “Synthesis of aza homologues of folic acid” (J Med Chem, 1979) come the findings set out here.

In data set [1] the test system is CCRF-CEM. In words: Cytotoxicity against human CCRF-CEM cells. Format: functional. Particulars: read-out: ID50 (the source's name).
Data set [2] relates to Lacticaseibacillus casei. The data set is described as follows: Antimicrobial activity against Lactobacillus casei ATCC 7469. The class given is functional. Particulars: read-out: ID50 (the source's name).
Data set [3] concerns CCRF-CEM. In words: Cytotoxicity against human CCRF-CEM cells at 10 ug/ml. The class given is functional, cell-based.
Data set [4] concerns Lacticaseibacillus casei. The data set is described as follows: Antimicrobial activity against Lactobacillus casei ATCC 7469 at 2 ug/ml. The class given is functional, organism-based.
Another data set concerns Mus musculus. In words: Toxicity in mouse L1210 cells allografted BDF1 mouse at 60 mg/kg, ip. The class given is organism-based. The arrangement: dose 60 mg/kg, route intraperitoneal. Particulars: in vivo.
The subject of another data set is L1210. The data set is described as follows: Antitumor activity against mouse L1210 cells allografted in BDF1 mouse assessed as increase of life span at non-toxic dosed administered as ip on day 1, 4 and 7. The class given is functional, organism-based.
The next data set relates to Enterococcus faecium. The data set is described as follows: Increase of Streptococcus faecium ATCC 8043 growth relative to folic acid. The class given is functional.
Another data set concerns Pediococcus. The data set is described as follows: Increase of Pediococcus cerevisiae ATCC 8081 growth relative to leucovorin. The class given is functional.
Data set [5] addresses T1, Thymidylate synthase (Lactobacillus casei) (UniProt P00469).
T1 sequence (whole entry): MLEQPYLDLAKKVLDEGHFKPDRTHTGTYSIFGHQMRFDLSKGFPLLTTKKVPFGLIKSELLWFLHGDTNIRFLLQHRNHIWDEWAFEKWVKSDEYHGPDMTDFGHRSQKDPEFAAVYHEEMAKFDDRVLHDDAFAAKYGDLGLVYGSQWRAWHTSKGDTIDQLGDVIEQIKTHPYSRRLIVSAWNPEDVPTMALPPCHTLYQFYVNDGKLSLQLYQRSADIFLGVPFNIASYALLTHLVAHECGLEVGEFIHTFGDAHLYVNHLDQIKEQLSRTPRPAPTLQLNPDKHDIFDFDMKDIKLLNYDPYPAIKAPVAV
In words: Inhibition of Lactobacillus casei thymidylate synthetase. Particulars: Lacticaseibacillus casei.

Each structure is given as a SMILES string. ≈ marks a conversion by molar mass, not a printed value. Calls of active or inactive are those of the source. No cut-off for these calls is given here.

Consider `CN(Cc1cnc2nc(N)nc(N)c2n1)c1ccc(C(=O)N[C@@H](CCC(=O)O)C(=O)O)cc1` [METHOTREXATE], for which the IC50 with CCRF-CEM [1] is 0.02 µg/mL (≈ 0.044 µM); in the data set with Lacticaseibacillus casei [2], 0.01 µg/mL (≈ 0.022 µM).
As for `COC(=O)CC[C@H](NC(=O)Nc1ccc(/N=C/c2cnc3nc(NC(C)=O)[nH]c(=O)c3n2)cc1)C(=O)OC`, the outcome in the data set on CCRF-CEM [3] and with Lacticaseibacillus casei [4] was inactive.
On to `Nc1nc2ncc(CNc3ccc(NC(=O)NC(CCC(=O)O)C(=O)O)cc3)nc2c(=O)[nH]1` (racemic), for which the Activity result is reported as “Toxic” in the data set with Mus musculus, 2% with Enterococcus faecium and 0.5% with Pediococcus. Also, the result with L1210, with CCRF-CEM [3] and in the data set on Lacticaseibacillus casei [4] was inactive. This molecule also returned an ID50 in [5] of 1.8 ×10⁻⁴ M.
Turning to `COC(=O)CC[C@H](NC(=O)Nc1ccc(NCc2cnc3nc(NC(C)=O)[nH]c(=O)c3n2)cc1)C(=O)OC`, the result in the data set on CCRF-CEM [3] and in the data set with Lacticaseibacillus casei [4] was inactive.
For `COC(=O)C[C@H](NC(=O)Nc1ccc(/N=C/c2cnc3nc(NC(C)=O)[nH]c(=O)c3n2)cc1)C(=O)OC`, the result with CCRF-CEM [3] and in the data set with Lacticaseibacillus casei [4] was inactive.
As to `COC(=O)C[C@H](NC(=O)Nc1ccc(NCc2cnc3nc(NC(C)=O)[nH]c(=O)c3n2)cc1)C(=O)OC`, the outcome in the data set with CCRF-CEM [3] and in the data set on Lacticaseibacillus casei [4] was inactive.
For `Nc1nc2ncc(CNc3ccc(NC(=O)NC(CC(=O)O)C(=O)O)cc3)nc2c(=O)[nH]1` (racemic), in the data set on Mus musculus, the Activity result is reported as “Toxic”. Also, the outcome in the data set with L1210 and with CCRF-CEM [3] was inactive. Further, the IC50 in the data set on Lacticaseibacillus casei [2] was 1.6 µg/mL (≈ 3.62 µM). Moreover, the ID50 in [5] came out at 1.8 ×10⁻⁴ M.
